Source: US20240050407A1, “METHODS FOR DELAY OF EJACULATION IN HUMAN MALES” (priority 2020, published 2024)

Legend:
Assay type in all cases: in vivo
[1] = test system: healthy human male subjects; assay: Ejaculation latency in healthy human males after pure mesembrine
Procedure: Experiments were performed to determine the effects of pure mesembrine on ejaculation in male subjects. 0.5 mg, 1 mg, 2.5 mg, and 5 mg doses of pure mesembrine (Cayman Chemical Company, MI, USA) were administered by oral, nasal or sublingual routes to healthy human male subjects. The formulation for oral (swallowed) and sublingual (held under tongue for 5 minutes) was 2 mg mesembrine/mL 40% aqueous for oral and sublingual. The nasal spray formulation was 0.4 mg mesembrine/mL 1% w/w NaCl saline delivered via metered nasal spray device. Mesembrine was administered 20 minutes prior to sexual activity. The sexual activity was either solo masturbation (“self”) or partnered intercourse with a female partner (“partnered”). Latency time of ejaculation was measured and calculated by time from start of sexual activity to ejaculation. […] In all test cases, ejaculation coincided with orgasm. In all cases where ejaculation was not achieved, orgasm was also not achieved.

Wistar rats = assay: Maximal tolerable dose (MTD) in rats; details: rat, single IP administration
[2] = test system: para-chloroamphetamine (PCA)-induced ejaculation model in anaesthetized Wistar rats; assay: Rat para-chloroamphetamine (PCA)-induced ejaculation model (ejaculation, latency, seminal vesicle pressure); details: for Seminal vesicle pressure response vs vehicle, FIG. 10, FIG. 11 / Ejaculation latency vs vehicle, FIG. 9: 20 mg/kg or 10 mg/kg IP 1 h before PCA
Procedure: Experiments were performed to assess the effect of an acute treatment of alkaloids, mesembrine, mesembrenone, mesembrenol and mesembranol, at their maximal tolerable dose (MTD) on ejaculation latency in a para-chloroamphetamine (PCA)-induced ejaculation model in anaesthetized Wistar rats.
Adult male Wistar rats (Charles-River, France, 10-11 weeks old) were housed at least 10 days prior to the beginning of the experiments with free access to regular diet and water and maintained on an inversed 12 hour dark/light cycle (9:00/21:00). All procedures were performed in accordance with the legislation on the use of laboratory animals (NIH publication N°85-23, revised 1996) and Animal Care Regulations in force in France as of 1988 (authorization from competent French Ministry of Agriculture—Agreement No. B78-423-1, July 2017).
Rats received a single administration by intraperitoneal (IP) route of either vehicle, mesembrine, mesembrenone, mesembrenol, or mesembranol 1 hour before the in vivo evaluation of PCA-induced ejaculation as follows:
Part 1: Rats received a single IP injection of either vehicle control (0.5% hydroxypropyl methylcellulose (HPMC) in sterile water, n=10), mesembrine at 20 mg/kg (n=9), 10 mg/kg (n=11), 2 mg/kg (n=12), 200 μg/kg (n=12) and 20 μg/kg (n=10) 1 hour prior to administration of PCA. Treatment groups for Part I are outlined below in Table 2:
Part 2: Rats received a single IP injection of mesembrenone at 20 mg/kg (n=10). Treatment groups for Part 2 are outlined in Table 3.
Part 3: Rats received single IP injection of mesembrenol at 20 mg/kg (n=4) or 10 mg/kg (n=6) or mesembranol at 20 mg/kg (n==6) or 10 mg/kg (n=6). Treatment for Part 3 are outlined in Table 4.
After treatment administration, the rats underwent an evaluation of their ejaculation function induced by PCA administration. Thus, the expulsion of seminal plug(s) and seminal vesicle pressure (SVP) increase was evaluated. At the end of experimental period, the rats were euthanized by an intracardiac injection of pentobarbital (Eutasol®, Centravet, France).
Drug Preparation. Alkaloids were diluted to a 100 mg/mL final concentration (stock solution) and mixed by vortex. Then, aliquots per rat were prepared and stored at −20° C. until use. The day of experiment, 1 aliquot per rat was thawed and diluted to the desired concentration. The volume of administration was either 2 mL/kg for the IP administration or 5 mL/kg for the oral gavage, in line with good practice for administration volume in rat.
Ejaculation was induced by intraperitoneal administration of P-chloroamphetamine (PCA) at 5 mg/kg in anesthetized rats according to previously described methods (Clement el al., Role of peripheral innervation in p-chloroamphetamine-induced ejaculation in anesthetized rats. J Androl 2006; 27:381-389). PCA is an amphetamine derivative that liberates catecholamines and serotonin from monoaminergic nerve terminals. Systemic administration of PCA has been reported to induce ejaculation in both conscious (Humphries et al, 1981; Rènyi, 1985) and anesthetized (Yonezawa et al, 2000) rats.
Seminal vesicle pressure (SW) was measured as a physiological marker for the emission phase of ejaculation (Clement P, Giuliano F. Physiology and Pharmacology of Ejaculation. Basic Clint Pharmacol Toxicol 201.6 119 Suppl 3:18-25),
Rats were anesthetized and their temperature maintained at 37° C. using a homoeothermic blanket. The carotid artery was catheterized with polyethylene tubings filled with heparinized saline (50 UI/ml) to record continuously blood pressure (BP) via a pressure transducer (Elcomatic 750, Glasgow, UK). Pressure was recorded using specific data acquisition software (Elphy, CNRS, France).
For measuring SVP, a suprapubic midline incision was performed to expose seminal vesicles and a polyethylene catheter (0.50 mm), filled with mineral oil, was inserted into one seminal vesicle through the apex and connected to a pressure transducer (Elcomatic 750, Glasgow, UK). […]

[3] = test system: healthy human male subjects; assay: Ejaculation latency in healthy human males after pure mesembrine; details: Subject D, 70 kg; 0.05 mg; Self; nasal spray (in aqueous 1% w/w NaCl)
[4] = mesembrine 20 μg/kg single IP 1 h before PCA, 30-min observation
[5] = mesembrine 200 μg/kg single IP 1 h before PCA, 30-min observation
[6] = mesembrine 2 mg/kg single IP 1 h before PCA, 30-min observation
[7] = mesembrine 10 mg/kg single IP 1 h before PCA, 30-min observation
[8] = mesembrine 20 mg/kg single IP 1 h before PCA, 30-min observation

COc1ccc([C@@]23CCC(=O)C[C@@H]2N(C)CC3)cc1OC [Mesembrine, mesembrine]
Qualitative experience ([1]; Subject A, 77 kg, 0.5 mg, Self, sublingual (5 min under tongue)): Orgasm with drug was more intense than average
Qualitative experience ([1]; Subject A, 77 kg, 1 mg, Self, sublingual (5 min under tongue)): Onset after dosing with drug felt at around 9 min;
Qualitative experience ([1]; Subject B, 75 kg, 0.5 mg, Self, oral): Significant lengthening of latency time noticed
Qualitative experience ([1]; Subject C, 100 kg, 0.5 mg, Self, oral): Did not complete ejaculation as an effect of drug.
Qualitative experience ([1]; Subject D, 70 kg, 1 mg, Self, oral): Satisfactory dosing to maintain control and easily
Qualitative experience ([1]; Subject D, 70 kg, 2.5 mg, Partnered, oral): Increased satisfaction from female partner noted.
Qualitative experience ([1]; Subject D, 70 kg, 5 mg, Partnered, oral): Did not complete ejaculation as an effect of drug.
ejaculation latency (in words) ([1]; all doses tested, oral, nasal or sublingual, 20 minutes prior to sexual activity): extended the ejaculation latency at all doses tested
maximal tolerable dose (MTD) (Wistar rats): 20 mg/kg (MTD)
ejaculation during the 30-minute observation period (in words) ([2]; 20 mg/kg IP 1 h before PCA): did not ejaculate
rats that did not ejaculate during the 30-min observation period following PCA injection ([2]; 20 mg/kg IP 1 h before PCA): 100%
Ejaculation latency (ejaculatory response vs vehicle control), FIG. 3 ([2]; all dosage conditions tested (20 μg/kg to 20 mg/kg IP)): delayed ejaculatory response
Seminal vesicle pressure response assessed as amplitude and AUC vs vehicle control, FIG. 4, FIG. 5 ([2]; all mesembrine treatment cases (20 μg/kg to 20 mg/kg IP)): decreased
N of ejaculating rats [2, 4]: 9/9
N of rats not ejaculating [2, 4]: 0/9
Percentage of ejaculating rats [2, 4]: 100%
N of ejaculating rats [2, 5]: 10/11
N of rats not ejaculating [2, 5]: 1/11
Percentage of ejaculating rats [2, 5]: 91%
N of ejaculating rats [2, 6]: 4/12
N of rats not ejaculating [2, 6]: 8/12
Percentage of ejaculating rats [2, 6]: 33%
N of ejaculating rats [2, 7]: 7/12
N of rats not ejaculating [2, 7]: 5/12
Percentage of ejaculating rats [2, 7]: 58%
N of ejaculating rats [2, 8]: 0/10
N of rats not ejaculating [2, 8]: 10/10
Percentage of ejaculating rats [2, 8]: 0%
Qualitative experience [3]: Effects noticed more rapidly than oral dosing.

COc1ccc([C@@]23CC[C@@H](O)C[C@@H]2N(C)CC3)cc1OC [mesembranol]
Seminal vesicle pressure response vs vehicle, FIG. 10, FIG. 11 [2]: decreased
Ejaculation latency vs vehicle, FIG. 9 ([2]; 30-min observation): delayed ejaculation

COc1ccc(C23C=CC(O)CC2N(C)CC3)cc1OC (centres unmarked) [mesembrenol]
Seminal vesicle pressure response vs vehicle, FIG. 10, FIG. 11 [2]: decreased
Ejaculation latency vs vehicle, FIG. 9 ([2]; 30-min observation): delayed ejaculation

COc1ccc([C@@]23C=CC(=O)C[C@@H]2N(C)CC3)cc1OC [mesembrenone]
Seminal vesicle pressure response vs vehicle, FIG. 7, FIG. 8 ([2]; 20 mg/kg IP 1 h before PCA): decreased
Ejaculation latency vs vehicle, FIG. 6 ([2]; 20 mg/kg IP 1 h before PCA, 30-min observation): delayed ejaculation
